Reference: US8404690B2, “Piperazine-2-carboxamide derivatives” (Merck Serono SA, priority 2003, dated 2013)

Key:
[1] = molecular target: T1, human Prostaglandin F2α receptor (hFP) (Homo sapiens, UniProt P43088); assay: In vitro functional assay 1: inhibition of Prostaglandin F2α induced IP3 synthesis in HEK/EBNA cells; format: cell-based; settings: tested on human Prostaglandin F2α; 30 nM PGF2α stimulation; read-out: EC50 value, antagonism of Prostaglandin F2α-induced IP3-synthesis
T1 construct: expressed in transfected cells; host or cells: 293-EBNA cells
T1 sequence (P43088 whole entry): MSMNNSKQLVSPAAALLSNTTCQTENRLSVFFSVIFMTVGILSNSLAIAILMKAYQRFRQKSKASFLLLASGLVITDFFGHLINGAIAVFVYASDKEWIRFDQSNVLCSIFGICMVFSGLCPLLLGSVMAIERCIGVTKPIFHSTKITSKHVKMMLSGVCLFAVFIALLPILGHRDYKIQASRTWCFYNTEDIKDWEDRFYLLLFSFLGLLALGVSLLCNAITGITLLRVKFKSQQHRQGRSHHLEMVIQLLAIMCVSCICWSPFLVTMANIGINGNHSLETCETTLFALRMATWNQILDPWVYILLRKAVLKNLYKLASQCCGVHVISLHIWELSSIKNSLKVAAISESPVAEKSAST
From the text: 1) In Vitro Functional Assay 1: Inhibition of Prostaglandin F2α Induced IP3 (Inositol Triphosphate) Synthesis in HEK/EBNA-Cells Expressing the Prostaglandin F2α Receptor
The interaction of Prostaglandin F2α with its receptor leads to IP3 synthesis, a second messenger for Ca^2+ release from sarcoplasmatic reticulum, involved in the process triggering uterine contractions. The present assay described hereinafter can be used to show the inhibition of the Prostaglandin F2α/Prostaglandin F2α receptor mediated IP3 synthesis by test compounds of formula (I).
293-EBNA cells and pCEP4 vector were purchased from Invitrogen; Fetal Bovine Serum from Cansera; Hygromycin B from Roche Molecular Biochemicals; DMEM-F12 medium, L-Glutamine from Life Technologies Inc.; [^3H] Inositol from Perkin Elmer Life Sciences; Prostaglandin F2α (PGF2α) from Sigma, AG1-X8 chromatography columns from BioRad, 96 well black/white plates from Corning Inc. […]
In the course of the three above mentioned experiments, the reaction was stopped by addition of 1 ml of stop solution (2.4% perchloric acid) for 10 min. […] The IP3 to be quantified were eluted with 3 ml elution buffer (1M ammonium formate, 0.1 M formic acid) and radioactivity was counted on a Beckman LS6000TA scintillation counter to measure the amount of phosphorylated [^3H] inositol.

[2] = molecular target: T2, human Prostaglandin F2α receptor (Homo sapiens, UniProt P43088); assay: In vitro competition binding assay with Scintillation Proximity Assay (SPA); design: Human Prostaglandin F2α receptor (full-length cDNA) was subcloned into the pCEP4 (Invitrogen) vector; expressed in transfected cells; host or cells: HEK 293 EBNA cells (membrane preparation); settings: Prostaglandin F2α as radioligand, membranes of HEK 293 EBNA cells, read-out: Binding affinity for human Prostaglandin F2α receptor Ki
T2 sequence (P43088 whole entry): as above
From the text: In vitro competition binding assay with Scintillating Proximity Assay (SPA) (see Pharmaceutical Manufacturing International, 1992, p. 49-53 by Cook, N. D. et al)
This assay allows to determine the binding affinity of the test compounds of formula (II) for the human Prostaglandin F2α receptor
Human Prostaglandin F2α receptor (full-length cDNA) was subcloned into the pCEP4 (Invitrogen) vector and transfected together with the hygromycin resistance gene into HEK 293 EBNA cells by Calcium-phosphate co-precipitation method. Antibiotic resistant cells were grown under constant selection pressure in DMEM/F-12 medium supplemented with 2% fetal calf serum, 4 mM L-Glutamine and 8 ml/l Insulin-Transferrin-Selenium-mix (all Invitrogen) and 300 μg/ml hygromycin at 37° C. in a humidified atmosphere of 5% CO2 in air. At 48 h before harvesting, receptor expression was enhanced by adding 5 mM of Na-butyrate. Cells were washed twice with phosphate buffer saline, harvested and pelleted by centrifugation.
Cell pellet was lysed by Dounce homogenisation in 250 mM sucrose, 25 mM Tris-HCl pH 7.5, 10 mM MgCl2, 1 mM EDTA containing proteases inhibitors according to the manufacturer (Boehringer Mannheim) at 4° C. The lysate was centrifuged at 1000 g, 4° C. for 10 min and the supernatant was centrifuged at 160000 g, 4° C. for 60 min. […]
In vitro competition binding with Scintillation proximity assay (SPA) was performed in Corning NBS 96 wells plates. Briefly, 100 μl of binding buffer containing 15 to 30 μg of purified membranes, 4 mg/ml of wheat-germ agglutinin (WGA) SPA beads and 1 to 2 nM of ^3H PGF2-alpha (determined by Scatchard analysis) in 1% DMSO was incubated for 2 hours at room temperature. Non-specific binding was determined in the presence of 1 μM of non-radioactive Prostaglandin F2α. […] The radioactivity was counted on a Microbeta plate counter and the binding data were analysed using the iterative, non-linear, curve-fitting program, “Prism” (GraphPad Software, Inc).

[3] = molecular target: T2, human Prostaglandin F2α receptor; assay: In vitro functional assay 2: inhibition of Prostaglandin F2α induced Ca2+-mobilization in HEK EBNA cells (FLIPR); format: cell-based; design: expressed in transfected cells; host or cells: HEK EBNA cells; settings: HEK EBNA cells expressing the human Prostaglandin F2α receptor
Method: 2) In Vitro Functional Assay 2: Inhibition of Prostaglandin F2α Induced Ca^2+-Mobilization in HEK/EBNA-Cell Expressing the Prostaglandin F2α Receptor, as Measured by FLIPR® (Fluorimetric Imaging Plate Reader).
HEK EBNA cells were seeded at 60000 cells/well in a Poly-L-Lysine precoated black/white bottom 96 well plate. 24 hours later cells were loaded with […] Fluo-4 in DMEM-F12 without fetal calf serum for 1-2 hours at 37° C. For Prostaglandin F2α dose response or agonist activity measurement of compounds—after a wash with FLIPR buffer (10 mM Hepes, 145 mM NaCl, 5 mM KCl, 1 mM MgCl2, 10 mM glucose, pH 7.4)—cells were stimulated with increasing concentration of Prostaglandin F2α or test compounds of formulae (I), (II) and (III).
Calcium mobilisation was then measured on the FLIPR for 4 min. For IC50 determination of the molecules, increasing concentrations of test compounds were added to the cells 30 min prior to the washing step. After the wash with FLIPR buffer, increasing concentrations of test compounds were added to the cells in FLIPR buffer and calcium mobilisation was measured for 1 min. Then the cells were stimulated with a concentration of 2 times the EC50 of Prostaglandin F2α and calcium mobilisation was measured for 4 min.

[4] = test system: Spontaneous uterine contractions in late-term pregnant rats; assay: In vivo assay: reduction of spontaneous uterine contractions in late-term pregnant rats; design: species or system rat; settings: i.v. route (infusion over 10 minutes), dose of 3 mg/kg/min, anesthetised late-term pregnant Sprague Dawley rats, AUC of intra-luminal uterine pressure vs basal
From the text: 3) In Vivo Assay: Reduction of Uterine Contractile Activity in Rats
Spontaneous Uterine Contractions in Late-Term Pregnant Rats:
Late-term pregnant (19-21 days of gestation) Sprague Dawley female rats (Charles River, Calco, Italy) weighing 350-400 g were anesthetised with urethane (1.05 g/kg, i.p.) and placed on a homeothermic operating table. The trachea was isolated and cannulated with a suitable polyethylene (PE) tubing. A midline incision at the hypogastrium level was made, one pregnant uterine horn exposed and its tubal end closed (near the ovary) by a ligature with surgical silk. […]
The spontaneous contractile response of the uterus was quantified by evaluating the area under the curve (AUC) of the changes in the intra-luminal uterine pressure over time (by Chart V4.04 for Windows software, PowerLab AD Instruments, Castle Hill, Australia). The effect of the test compound on the spontaneous uterine contraction was evaluated as the percent variation of the AUC calculated in a 10-min interval following the administration of each dose of test compound as compared to the AUC in a 10-min interval before the administration of the first dose of test compound (basal value). When possible, a dose-response curve (of peak effect) was plotted and the relative ED50 value calculated (by S-Plus 2000 v. 4.6 statistical software, Mathsoft, Inc. Seattle, Wash., USA).

Compound | Ki [2] | IC50 [3] | further results
C=CCNC(=O)[C@H]1CN(S(=O)(=O)c2ccc(C(C)(C)C)cc2)CCN1S(=O)(=O)c1cccc2cccnc12.Cl |  |  | melting point: 126 to 129 °C
C=CCNC(=O)[C@@H]1CN(S(=O)(=O)c2ccc(C(C)(C)C)cc2)CCN1S(=O)(=O)c1cccc2cccnc12 [Example 8, (2S)-4-[(4-tert-butylphenyl)sulfonyl]-N-Drop-2-enyl-1-(quinolin-8-ylsulfonyl)piperazine-2-carboxamide] |  |  | EC50 [1]: 24 nM
CN(CC(O)c1ccccc1)C(=O)[C@H]1CN(C(=O)Nc2ccc(Oc3ccccc3)cc2)CCN1S(=O)(=O)c1ccccc1 (stereo partly drawn) [Example 16, (3R)—N˜3˜-(2-hydroxy-2-phenylethyl)-N˜3˜-methyl-N˜1˜-(4-phenoxy-phenyl)-4-(phenylsulfonyl)piperazine-1,3-dicarboxamide] | 1150 nM | 4750 nM | 
C=CCNC(=O)c1cc(C(C)(C)C)ccc1S(=O)(=O)c1cccc2cccnc12 [[5-(tert-butyl)-2-(8-quinolylsulfonyl)phenyl]-N-prop-2-enylcarboxamide] |  |  | inhibition of uterine contractions [4]: 56.1%
C=CCNC(=O)[C@@H]1CN(S(=O)(=O)c2ccc(C(C)(C)C)cc2)CCN1S(=O)(=O)c1cccc2cccnc12 [drawing 66, (2S)-4-[(4-tert-butylphenyl)-sulfonyl]-N-prop-2-enyl-1-(quinolin-8-yl-sulfonyl)piperazine-2-carboxamide] | 125 nM |  | 
(3S)-4-(3-chlorobenzoyl)-N˜1˜-(3,4-dichlorophenyl)-N˜3˜-[(1S)-2,3-dihydro-1H-inden-1-yl]piperazine-1,3-dicarboxamide [Example 21] | 816 nM | 495 nM | 
